Source: patent US12303483B2, “Lipase degradation resistant surfactants for use in large molecule therapeutic formulations” (Janssen Biotech, Inc., priority 2018, dated 2025)

Tests used:
Type in all cases: physicochemical
[1] = tested on: lipases immobilized on beads; experiment: Surfactant stock solutions exposed to lipases immobilized on beads, surfactant quantitation by UPLC-ELSD (Example 2); settings: over the course of 18 days
Source text: Materials: Surfactants investigated in this study included PFA and polysorbates. Two PFA, Brij® 35 (L23) (Product #ET47399, CAS #9002-92-0) and Brij® 98 (020) (Product #ET40118, CAS #9004-98-2), were obtained from Croda International PLC (East Yorkshire, UK). Polysorbate 20 (Product #4116-04, CAS #9005-64-5) and polysorbate 80 (Product #4117-03, CAS #9005-65-6) were obtained from JT Baker (Center Valley, Pennsylvania). Lipase immobilized on polystyrene beads at 2.0 U/mg (Product Number 73940) was obtained from Fluka (Denmark). All monoclonal antibodies (mAbs) were produced or acquired by Janssen Supply Chain, LLC (Horsham, Pennsylvania) and purified in a series of chromatography and filtration steps.
Surfactant Quantitation. Surfactant quantitation of samples was performed using UPLC with evaporative light scattering detection. Duplicate 7.5 μL sample injections were injected into an OASIS MAX column (30 μm, 2.1×20 mm). The mobile phase consisted of a gradient of milliQ water and isopropanol with 2% formic acid. The integrated area for each sample's eluting peak was assessed against a surfactant standard curve created from serial dilution of each surfactant type ranging from 0.005% (w/v) to 0.08% (w/v).
Stock solutions of PFA and polysorbate surfactants were exposed to lipases immobilized on beads over a period of 18 days. Surfactant levels in the solutions were quantified periodically over the course of testing to determine the extent of lipase-mediated degradation.

bispecific mAb A = experiment: SEC percent monomer, formulation spiked with lipase-exposed surfactant (Example 3), mAb A; settings: mAb A (FIG. 3A)
Experimental: (§1) Size Exclusion Chromatography (SEC). The soluble aggregation quality attribute of the investigated formulations was evaluated using size exclusion ultra performance liquid chromatography (SE-UPLC). To prepare samples for analysis, collected formulations from each condition (time zero (T0) control, shaking stress, and thermal stress followed by shaking stress) were diluted with formulation buffer of each respective mAb from 50 mg/mL to 2 mg/mL. SEC runs were conducted with a 5 μL injection of sample into an Acquity UPLC 200 Å, 1.7 μm column using a 0.2 M sodium phosphate mobile phase. Eluting peaks were integrated to determine monomer content based on percent area of the main peak relative to sum of all peak areas.
(§2) Further studies evaluated the ability of PFA and polysorbate formulations to retain their protective effects after exposures of the surfactants to lipase. The mAb formulations were spiked with surfactants that had been exposed to lipase-beads and then subjected to shaking stress or thermal stress followed by shaking. The mAb formulations were then evaluated for soluble aggregation and particulate matter using SEC and DLS, respectively.

[2] = tested on: mAbs A, B and C (50 mg/mL formulations); experiment: SEC percent monomer of mAb formulations with surfactant after shaking or thermal stress (Example 1); settings: 0.01% (w/v) surfactant; 3-month storage at 25° C. followed by shaking stress; compared with polysorbate (PS20 and PS80) formulations; Student's t-test p<0.01
Experimental: as §1
To assess the protective effects of different surfactants in mAb formulations, polysorbate and PFA was spiked into formulations for three different mAbs. mAbs A and B are bispecific antibodies, and mAb C is an IgG4 monoclonal antibody. The formulations for mAbs A and B comprised 10 mM histidine, 8.5% (w/v) sucrose, at pH 5.7. The mAb C formulation consisted of 10 mM sodium phosphate, 8.5% (w/v) sucrose, 10 ppm EDTA, at pH 7.1. […] Each formulation condition was evaluated with vials in triplicate. The impact of the surfactant type and concentration was assessed using size exclusion chromatography (SEC).

IgG4 mAb C = experiment: SEC percent monomer, formulation spiked with lipase-exposed surfactant (Example 3), mAb C; settings: 0.01% surfactant exposed to lipase; mAb C (FIG. 3C)
Experimental: as §1, §2

surfactant level in stock solutions exposed to lipases [1] | percent monomer content (SEC) versus control formulation without any surfactant (bispecific mAb A; 0.01% surfactant exposed to lipase) | percent monomer content (SEC) versus control formulation without any surfactant (bispecific mAb A; 0.04% surfactant exposed to lipase) | percent monomer content (SEC) [2] | percent monomer content (SEC) versus control formulation without any surfactant (IgG4 mAb C) | Substance
declined significantly | lower percent monomer content | lower percent monomer content |  |  | polysorbate 80 [PS80]
remained relatively constant |  |  | retain higher percent monomer content |  | polyoxyethylene (20) oleyl ether [Brij® 020]
declined significantly |  |  |  | lower percent monomer content | polysorbate 20 [PS20]
remained relatively constant |  |  | retain higher percent monomer content |  | polyoxyethylene (23) lauryl ether [Brij® L23]
